Values of other authors as cited in patent US4839374A, “4-((Bicyclic heterocyclyl)-methyl and -hetero)-piperidines” (Janssen Pharmaceutica, N.V., priority 1987, dated 1989).

System: effects of serotonin
Details: rats, compound 48/80; known serotonin-antagonists; cited from earlier work

## CN1CCC(=C2c3ccccc3CCc3sccc32)CC1 [pizotifen]
  prevention of cyanosis of ears and extremities, lesions in the glandular area of the stomach and abnormal gastric distension: prevent completely

## O=C(CCCN1CCC2(CC1)C(=O)NCN2c1ccccc1)c1ccc(F)cc1 [spiperone]
  prevention of cyanosis of ears and extremities, lesions in the glandular area of the stomach and abnormal gastric distension: prevent completely
